Measured values: patent publication US20020151522A1, “Regulation of weight” (priority 2001, published 2002)
Read-outs that look alike come from different tables or passages of the source.

B1: BDNF: brain-derived neurotrophic factor (protein, UniProt P23560 19-247, looked up)
Neurotrophic factor BDNF …: APMKEANIRGQGGLAYPGVRTHGTLESVNGPKAGSRGLTSLADTFEHVIEELLDEDQKVRPNEENNKDADLYTSRVMLSSQVPLEPPLLFLLEEYKNYLDAANMSMRVRRHSDPARRGELSVCDSISEWVTAADKKTAVDMSGGTVTVLEKVPVSKGQLKQYFYETKCNPMGYTKEGCRGIDKRHWNSQCRTTQSYVRALTMDSKKRIGWRFIRIDTSCVCTLTIKRGR
B2: GDNF: glial-derived neurotrophic factor (protein, UniProt P39905 78-211, looked up)
Glial cell line-derived …: SPDKQMAVLPRRERNRQAAAANPENSRGKGRRGQRGKNRGCVLTAIHLNVTDLGLGYETKEELIFRYCSGSCDAAETTYDKILKNLSRNRRLVSDKVGQACCRPIAFDDDLSFLDDNLVYHILRKHSAKRCGCI

How the values were obtained:
[1] = Weight gain in human patient suffering from a head injury, central administration for 14 days; type: in vivo
Procedure: GPE in a dose of 10 μg/Kg/day is administered via lateral cerebroventricular injection into the brain of a human patient suffering from a head injury to promote weight gain to normal levels. Alternatively, a GPE analog is administered. Treatment is commenced as soon as possible after the head injury and then for 14 days thereafter.
A GPE analog in a dose of 20 μg/Kg/day is administered via focal injection into the lateral cerebral ventricle of a human patient suffering from a head injury to promote weight gain to normal levels. Alternatively, GPE is administered. Treatment is commenced as soon as possible after the head injury and then for 14 days thereafter.
GPE in a dose of 5 μg/Kg/day is administered via a surgically inserted shunt into the lateral cerebral ventricle of a human patient suffering from a head injury to promote weight gain to normal levels. Alternatively, a GPE analog is administered. Treatment is commenced as soon as possible after the head injury and then for 14 days thereafter.

[2] = Body weight gain over 14 days after unilateral fimbria-fornix lesion with daily intracerebroventricular infusion; type: in vivo, rat; conditions: male Wistar rats, fimbria-fornix lesion/cannulation; icv 2 μL daily for 14 days; GPE 3 μg/day, IGF-I 20 μg/day, NGF 1 μg/day
From the text: A group of male Wistar rats weighing 174-193 g (University of Auckland, Animal Resources Unit) were divided randomly into the following groups: “control”, “sham”, “vehicle”, “GPE”, “IGF-I”, and “NGF”, depending on the treatment each animal was to undergo. “Control” animals were weighed at the first and last time points and were not treated or handled at any other time. “Sham” animals underwent a sham surgery of anesthesia, incision through the scalp skin, drill hole through the skull, bone wax to seal the drill hole, and sutures for the skin incision. They were then handled daily in mock infusions to mimic handling of animals that received lesions and intracerebroventricular infusions.
“Vehicle”, “GPE”, “IGF-I”, and “NGF” animals were anaesthetized with 75 mg/Kg sodium pentobarbital and positioned in a stereotaxic apparatus (Kopf Instruments, USA), and underwent unilateral fimbria-fomix lesions to lesion septal cholinergic neurons and chronic cannula implantation into the left lateral cerebral ventricle. Fomix-fimbria lesions were performed by transecting the fimbria-fornix projection using a specialized retractable wire Scouten knife (Kopf Instruments) designed to minimize tissue damage except at the required lesion site. Anaesthetized animals received an incision through their scalp skin and a small drill hole was made in the skull at the stereotaxic coordinates anterior-posterior (AP) axis −1.0 mm from the bregma and medial-lateral (ML) axis +2.5 mm from midline (left side), from an atlas of the rat brain (Paxinos et al. (1986), “The rat brain in stereotaxic coordinates”, Academic Press, London). The knife was lowered into the brain through the drill hole to the coordinate +6.0 mm ventral to the skull on the dorsal-ventral (DV) axis. The knife blade was then extended 2.5 mm toward midline at an angle of 30° caudal to the bregma. The knife, with blade extended, was then raised 4.5 mm dorsally to axotomize the fimbriafomix fibres. The blade was then retracted, the knife lowered 4.5 mm to its original coordinate, and the process was repeated. […]

[3] = intracerebroventricular, patients with Alzheimer's disease; cited from earlier work
[4] = infused in the brain of adult rats with partial or full lesions, e.g. partial fimbria-fornix transection; cited from earlier work
[5] = administered to the brain of normal, unlesioned rats; cited from earlier work
[6] = administered into the brain, adult rats after transient forebrain ischemia; cited from earlier work
[7] = intravenous, humans after moderate to severe head injury; cited from earlier work

Molecule | weight gain over the 14 days [2] | effect on body weight [4] | effect on body weight [5] | further results
NCC(=O)N1CCC[C@H]1C(=O)N[C@@H](CCC(=O)O)C(=O)O [GPE, glycyl-L-prolyl-L-glutamic acid] | the normally expected weight gain occurred | – | – | weight gain in the patient ([1]; 5 μg/Kg/day via surgically inserted shunt into the lateral cerebral ventricle): Normal weight gain is promoted; weight gain in the patient ([1]; 10 μg/Kg/day via lateral cerebroventricular injection): Normal weight gain is promoted; weight gain in the patient ([1]; 20 μg/Kg/day via focal injection into the lateral cerebral ventricle): Normal weight gain is promoted
NGF: Nerve growth factor | no weight gain | either decrease normal body weight gain or cause weight loss | cause weight loss | effect on body weight [3]: marked weight reduction
IGF-I: insulin-like growth factor I | minimal weight gain | – | – | effect on body weight [6]: cause weight gain; effect on body weight [7]: cause weight gain
bFGF: basic fibroblast growth factor | – | either decrease normal body weight gain or cause weight loss | – | –
B1 | – | either decrease normal body weight gain or cause weight loss | cause weight loss | –
B2 | – | either decrease normal body weight gain or cause weight loss | cause weight loss | –
